Like-named read-outs stand apart in the source and are kept apart here. Bounds are passed on as bounds.

Data set [1] concerns human breast cancer cells having steroid hormone receptor. Put plainly: Test 2: antitumor effect, dispersion in Polysolvate 80, intraperitoneal injection. Type of data set: in vivo, human (implanted in BALB/C-nu/nu mice). Conditions: Polysolvate 80 dispersion. From the text:
(§1) Pieces of human breast cancer cells having steroid hormone receptor were subcutaneously implanted under the arm of mice (BALB/C-nu/nu) (5 week age) to form solid tumors. After the solid tumors were established, each dispersion or solution of the active ingredient in olive oil was administrated by oral dose or intraperitoneal injection each other day for 10 times or every days for 20 times. Twenty five days from the initial administration, the tumors were excised. Efficiency of inhibition of tumor proliferation was measured from (A) each average weight of excised tumors for 10 mice (the active ingredient was administrated) and (B) each average weight of excised tumors for 10 control mice. [formula]
In accordance with the test I, except administrating each active ingredient in a form of dispersion dispersed in Polysolvate 80 (emulsifier) by an intraperitoneal injection in the test of antitumor effect.

For data set [2], the system named is estrogen receptor. Put plainly: Test 3: binding function to estrogen sensitive cells (displacement of 3H-estradiol from uterus of rabbit). Here is the method: Binding function of 3-hydroxy-1,3,5(10)-estratriene-17β-[4-{p-[bis(2-chloroethyl)amino]phenyl}butyryloxy]acetate to estrogen sensitive cells.
Estradiol labelled by tritium (^3 H) was incubated with uterus of rabbit to bind it and then, the sample was added to the system to measure the amount of free ^3 H-estradiol which was replaced by the […].

A short description of data set [3]: Acute toxicity (LD50). Also on record: species or system mice (ICR-JCL). The following applies: mouse, in vivo; for LD50: Test 2, route and unit inferred; for LD50 at 168 h: mice. How it is done:
In the measurement of LD50, eight ICR-JCL female mice (5 week age) were used as one group to breed in a transparent polycage, and each drug was dissolved in olive oil and administrated by routes of intraperitoneal injection (i.p.), oral administration (p.o.) and subcutaneous injection (s.c.), to the mice at one dose, and then, their value of LD50 by Litchfield-Wilcoxon graph method is obtained after 7 days. LD50 of Chlorambucil was i.p. 20 mg./kg., p.o. 80 mg./kg., and s.c. 26 mg./kg., LD50 of the sample No. 2 in Table 1 of the present invention was i.p. greater than 3000 mg./kg., p.o. greater than 6000 mg./kg. and s.c. greater than 3000 mg./kg.. […]

Data set [4] concerns human breast cancer cells having steroid hormone receptor. Kind of data set: Antitumor test (in vivo), implanted human breast cancer, drug in olive oil. More on the design: species or system human (implanted in BALB/C-nu/nu mice).
For data set [5] the test system is unchanged. The description is as above. Also on record: species or system human (implanted in BALB/C-nu/nu mice). The following applies: oral administration.
Excerpt: as §1

Data set [6] relates to spleen, uterus and thymus. Put plainly: Observation in autopsy. Conditions: autopsy after administration. The format is in vivo, mice (BALB/C-nu/nu).
Excerpt: as §1

The mark [7] stands for this setting: po, oral administration, Table 1, read-out: LD50 (Oral administration).
Where [8] appears, read: sc, subcutaneous administration, Table 1, read-out: LD50 (Subcutaneous administration).
Where [9] appears, read: subcutaneous administration, 5 mg/kg.
The mark [10] stands for this setting: subcutaneous administration, 10 mg/kg.
The mark [11] stands for this setting: ip, single dose in olive oil, i.p., 7 days, read-out: LD50.
Setting [12] is: po, single dose in olive oil, p.o., 7 days, read-out: LD50.
Setting [13] is: sc, single dose in olive oil, s.c., 7 days, read-out: LD50.

As for `C[C@]12CC[C@@H]3c4ccc(O)cc4CC[C@H]3[C@@H]1CC[C@@H]2OC(=O)COC(=O)CCCc1ccc(N(CCCl)CCCl)cc1` [3-hydroxy-1,3,5(10)-estratriene-17β-[4-{p-[bis(2-chloroethyl)amino]phenyl}butyryloxy]acetate], the “Inhibitory effect (%)” value in data set [1] (0.5 mg./kg.) stood at 91%; in data set [1] (5 mg./kg.) it was 97%. Also, the “binding function to estrogen receptor” value in data set [2] is reported as “has the binding function to estrogen receptor”. The “free 3H-estradiol (displacement)” value in data set [2] (compared with estradiol) is listed as “free ^3 H-estradiol was increased as the same with estradiol itself”. This compound also returned an LD50 in data set [3] (ip) of more than 1000 mg/kg.
On to `CCC(=O)Oc1ccc2c(c1)CC[C@@H]1[C@@H]2CC[C@]2(C)[C@@H](OC(=O)COC(=O)CCCc3ccc(N(CCCl)CCCl)cc3)CC[C@@H]12` [Sample No. 4, 3-propionyloxy-1,3,5(10)-estratriene-17β-[4-{p-[bis(2-chloroethyl)amino]phenyl}butyryloxy]acetate], for which the figures for the LD50 at 168 h in data set [3] (setting [7]) and in data set [3] (setting [8]) were more than 3000 mg/kg and more than 2000 mg/kg, respectively. The Efficiency of inhibition turned out to be 92% in data set [4] (setting [9]), 94% in data set [4] (setting [10]), 93% in data set [5] (10 mg/kg) and 97% in data set [5] (15 mg/kg). The Survived ratio in data set [4] (setting [9]), in data set [4] (setting [10]), in data set [5] (10 mg/kg) and in data set [5] (15 mg/kg) was 10/10 in each case.
`O=C(O)CCCc1ccc(N(CCCl)CCCl)cc1` [Sample No. 1, 4-{p-[bis(2-chloroethyl)amino]phenyl}butyric acid, reference compound]: the “changes of spleen, uterus and thymus in autopsy” value in data set [6] is “serious changes of spleen, uterus and thymus were found”. The “Inhibitory effect (%)” value in data set [1] (5 mg./kg.) is 30%. In data set [3] (ip), the LD50 was 20 mg/kg. Moreover, the LD50 at 168 h was determined as 20 mg/kg in data set [3] (setting [11]); 80 mg/kg in data set [3] (setting [7]); 80 mg/kg in data set [3] (setting [12]); 26 mg/kg in data set [3] (setting [13]); 26 mg/kg in data set [3] (setting [8]). Also, the Efficiency of inhibition in data set [4] (setting [9]) is 53%; in data set [4] (setting [10]), 71%; in data set [4] (subcutaneous and oral administration, 15 mg./kg. (text, about)), 50 to 70%; in data set [5] (10 mg/kg), 55%; in data set [5] (15 mg/kg), 70%. For the same compound, the Survived ratio in data set [4] (setting [9]) is 9/10; in data set [4] (setting [10]), 7/10; in data set [5] (10 mg/kg), 8/10; in data set [5] (15 mg/kg) it was 7/10.
Take `C[C@]12CC[C@@H]3c4ccc(OC(=O)c5ccccc5)cc4CC[C@H]3[C@@H]1CC[C@@H]2OC(=O)COC(=O)CCCc1ccc(N(CCCl)CCCl)cc1` [Sample No. 2, 3-benzoyloxy-1,3,5(10)-estratriene-17β-[4-{p-[bis(2-chloroethyl)amino]phenyl}butyryloxy]acetate]: the LD50 at 168 h is more than 3000 mg/kg in data set [3] (setting [11]); more than 6000 mg/kg in data set [3] (setting [7]); more than 6000 mg/kg in data set [3] (setting [12]); more than 3000 mg/kg in data set [3] (setting [13]); more than 2000 mg/kg in data set [3] (setting [8]). Further, the Efficiency of inhibition in data set [4] (setting [9]) turned out to be 90%; in data set [4] (setting [10]) it was 98%; in data set [5] (10 mg/kg) it was 92%; in data set [5] (15 mg/kg), 98%. The Survived ratio in data set [4] (setting [9]), in data set [4] (setting [10]), in data set [5] (10 mg/kg) and in data set [5] (15 mg/kg) was 10/10 in each case.
Regarding `CC(=O)Oc1ccc2c(c1)CC[C@@H]1[C@@H]2CC[C@]2(C)[C@@H](OC(=O)COC(=O)CCCc3ccc(N(CCCl)CCCl)cc3)CC[C@@H]12` [Sample No. 3, 3-acetoxy-1,3,5(10)-estratriene-17β-[4-{p-[bis(2-chloroethyl)amino]phenyl}butyryloxy]acetate], the LD50 at 168 h in data set [3] (setting [7]) is more than 3000 mg/kg; in data set [3] (setting [8]), more than 2000 mg/kg. Further, the Efficiency of inhibition worked out at 93% in data set [4] (setting [9]), 95% in data set [4] (setting [10]), 91% in data set [5] (10 mg/kg) and 93% in data set [5] (15 mg/kg). The Survived ratio in data set [4] (setting [9]), in data set [4] (setting [10]), in data set [5] (10 mg/kg) and in data set [5] (15 mg/kg) was 10/10 each time.

The values are drawn from patent US4261910A, “Process for the preparation of Chlorambucil derivatives” (Kureha Kagaku Kogyo Kabushiki Kaisha, priority 1978, dated 1981).
